T/C data for 17 molecules are collected here from PubChem BioAssay AID328 (DTP/NCI, 2004).

Values joined by “and” are separate entries in the source; they are usually repeats but may differ in a detail not shown here. Equal values may be shown once. Inconclusive results and toxic doses are left out.

This test deals with BDF1 mice, P388 leukemia ip, median survival T/C. Kind of test: NCI In Vivo Anticancer Drug Screen. Data for tumor model P388 Leukemia (intraperitoneal) in B6D2F1 (BDF1) mice. Conditions: endpoint: median survival time, higher = longer survival. The procedure, abridged:
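Each value expresses how treatment altered survival: treated-mouse outcome over vehicle-mouse outcome, both groups bearing the transplanted tumour.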

[1] abbreviates: dose: 12.5 mg/kg/injection, schedule: Q01DX009 (ip), vehicle: Klucel (hydroxypropylcellulose) (HPC).
The mark [2] stands for this setting: dose: 25.0 mg/kg/injection, schedule: Q01DX009 (ip), vehicle: Klucel (hydroxypropylcellulose) (HPC).
Where [3] appears, read: dose: 100.0 mg/kg/injection, schedule: Q04DX003 (ip), vehicle: Klucel (hydroxypropylcellulose) (HPC).
Where [4] appears, read: dose: 400.0 mg/kg/injection, schedule: Q04DX003 (ip), vehicle: Klucel (hydroxypropylcellulose) (HPC).
Setting [5] is: dose: 100.0 mg/kg/injection, schedule: Q01DX009 (ip), vehicle: saline.
[6] abbreviates: dose: 200.0 mg/kg/injection, schedule: Q01DX009 (ip), vehicle: saline.
Where [7] appears, read: dose: 400.0 mg/kg/injection, schedule: Q01DX009 (ip), vehicle: saline.
The mark [8] stands for this setting: dose: 100.0 mg/kg/injection, schedule: Q04DX002 (ip), vehicle: saline with Tween-80.
The mark [9] stands for this setting: dose: 100.0 mg/kg/injection, schedule: Q04DX003 (ip), vehicle: saline with Tween-80.
The mark [10] stands for this setting: dose: 25.0 mg/kg/injection, schedule: Q01DX009 (ip), vehicle: saline with Tween-80.
Setting [11] is: dose: 200.0 mg/kg/injection, schedule: Q04DX002 (ip), vehicle: saline with Tween-80.

Regarding `CN(C)c1ccc(C=O)c(Br)c1`, the T/C is, setting by setting: under setting [1], 109 % of control; under setting [2], 90 % of control; (dose: 50.0 mg/kg/injection, schedule: Q01DX009 (ip), vehicle: Klucel (hydroxypropylcellulose) (HPC)) 86 % of control; under setting [3], 90 % of control; under setting [4], 104 % of control.

For the molecule `CCOC(=O)C1OC1(C)c1ccccc1` (stereo not drawn), the T/C is, setting by setting: (dose: 75.0 mg/kg/injection, schedule: Q01DX009 (ip), vehicle: Klucel (hydroxypropylcellulose) (HPC)) 95 % of control; under setting [3], 100 % of control and 103 % of control; (dose: 150.0 mg/kg/injection, schedule: Q01DX009 (ip), vehicle: Klucel (hydroxypropylcellulose) (HPC)) 90 % of control; (dose: 200.0 mg/kg/injection, schedule: Q04DX003 (ip), vehicle: Klucel (hydroxypropylcellulose) (HPC)) 100 % of control and 111 % of control; (dose: 300.0 mg/kg/injection, schedule: Q01DX009 (ip), vehicle: Klucel (hydroxypropylcellulose) (HPC)) 113 % of control; under setting [4], 92 % of control and 104 % of control.

`CCC(=O)O[C@H]1CC[C@H]2[C@@H]3[C@H](C)CC4=CC(=O)CC[C@]4(C)[C@H]3CC[C@]12C`: the T/C is 95 % of control under setting [5], 100 % of control under setting [6] and 115 % of control under setting [7].

Consider `NCC(O)CSc1ccc(Cl)c(Cl)c1` (stereo not drawn), for which the T/C by setting is: (dose: 50.0 mg/kg/injection, schedule: Q04DX002 (ip), vehicle: saline with Tween-80) 98 % of control; under setting [8], 106 % of control.

For `COc1cc(C=O)cc(O)c1O`, the T/C is, setting by setting: (dose: 100.0 mg/kg/injection, schedule: Q01DX009 (ip), vehicle: saline sonified) 95 % of control; (dose: 176.0 mg/kg/injection, schedule: Q01DX009 (ip), vehicle: saline sonified) 91 % of control; (dose: 200.0 mg/kg/injection, schedule: Q01DX009 (ip), vehicle: saline sonified) 120 % of control; (dose: 264.0 mg/kg/injection, schedule: Q01DX009 (ip), vehicle: saline sonified) 104 % of control.

`CC1(O)CC(=O)c2c(ccc3c2C(=O)c2cccc(O)c2C3=O)C1` (stereo not drawn): the T/C (dose: 0.5 mg/kg/injection, schedule: Q01DX009 (ip), vehicle: Klucel (hydroxypropylcellulose) (HPC)) is 101 % of control; the T/C (dose: 1.0 mg/kg/injection, schedule: Q01DX009 (ip), vehicle: Klucel (hydroxypropylcellulose) (HPC)) is 101 % of control; the T/C (dose: 2.0 mg/kg/injection, schedule: Q01DX009 (ip), vehicle: Klucel (hydroxypropylcellulose) (HPC)) is 109 % of control; the T/C (dose: 4.0 mg/kg/injection, schedule: Q01DX009 (ip), vehicle: Klucel (hydroxypropylcellulose) (HPC)) was 111 % of control.

In the case of `c1ccc2c(c1)OCCOCCOc1ccccc1OCCOCCO2`, the T/C was 100 % of control (dose: 4.69 mg/kg/injection, schedule: Q01DX009 (ip), vehicle: saline with Tween-80); 90 % of control (dose: 9.38 mg/kg/injection, schedule: Q01DX009 (ip), vehicle: saline with Tween-80); 90 % of control (dose: 18.7 mg/kg/injection, schedule: Q01DX009 (ip), vehicle: saline with Tween-80); 100 % of control under setting [9]; 89 % of control (dose: 150.0 mg/kg/injection, schedule: Q01DX009 (ip), vehicle: saline with Tween-80); 100 % of control (dose: 200.0 mg/kg/injection, schedule: Q04DX003 (ip), vehicle: saline with Tween-80). The T/C (dose: 400.0 mg/kg/injection, schedule: Q04DX003 (ip), vehicle: saline with Tween-80) was 105 % of control.

Regarding `CC(Nc1ccccc1)(C(N)=O)c1ccccc1` (stereo not drawn), the T/C reads like this: (dose: 25.0 mg/kg/injection, schedule: Q01DX001 (ip), vehicle: saline with Tween-80) 90 % of control; (dose: 50.0 mg/kg/injection, schedule: Q01DX001 (ip), vehicle: saline with Tween-80) 104 % of control; (dose: 100.0 mg/kg/injection, schedule: Q01DX001 (ip), vehicle: saline with Tween-80) 95 % of control; (dose: 200.0 mg/kg/injection, schedule: Q01DX001 (ip), vehicle: saline with Tween-80) 90 % of control; (dose: 400.0 mg/kg/injection, schedule: Q01DX001 (ip), vehicle: saline with Tween-80) 95 % of control.

As for `CCCCCCCCCCC[N+](C)(C)CCCCCC[N+](C)(C)CCCCCCCCCCC`, the T/C is 90 % of control and 108 % of control (dose: 1.56 mg/kg/injection, schedule: Q01DX009 (ip), vehicle: saline); 103 % of control (dose: 3.12 mg/kg/injection, schedule: Q01DX009 (ip), vehicle: saline); 102 % of control and 118 % of control (dose: 3.13 mg/kg/injection, schedule: Q01DX009 (ip), vehicle: saline); 115 % of control and 124 % of control (dose: 6.25 mg/kg/injection, schedule: Q01DX009 (ip), vehicle: saline); 93 % of control and 109 % of control (dose: 12.5 mg/kg/injection, schedule: Q01DX009 (ip), vehicle: saline).

For `CCC(c1ccc(OC(=O)Cc2ccc(N(CCCl)CCCl)cc2)cc1)C(CC)c1ccc(OC(=O)Cc2ccc(N(CCCl)CCCl)cc2)cc1` (stereo not drawn), the T/C is, setting by setting: under setting [10], 96 % of control; (dose: 50.0 mg/kg/injection, schedule: Q01DX009 (ip), vehicle: saline with Tween-80) 104 % of control; (dose: 64.0 mg/kg/injection, schedule: Q01DX009 (ip), vehicle: saline with Tween-80) 92 % of control and 100 % of control; (dose: 100.0 mg/kg/injection, schedule: Q01DX009 (ip), vehicle: saline with Tween-80) 104 % of control; (dose: 128.0 mg/kg/injection, schedule: Q01DX009 (ip), vehicle: saline with Tween-80) 92 % of control and 98 % of control; (dose: 200.0 mg/kg/injection, schedule: Q01DX009 (ip), vehicle: saline with Tween-80) 98 % of control. Also, the T/C by setting is: (dose: 256.0 mg/kg/injection, schedule: Q01DX009 (ip), vehicle: saline with Tween-80) 93 % of control and 99 % of control; (dose: 400.0 mg/kg/injection, schedule: Q01DX009 (ip), vehicle: saline with Tween-80) 107 % of control; (dose: 512.0 mg/kg/injection, schedule: Q01DX009 (ip), vehicle: saline with Tween-80) 98 % of control and 104 % of control.

Regarding `Nc1ncnc2c1ccn2C1OC2COP(=O)(O)OC2C1O` (stereo not drawn), the T/C is, setting by setting: (dose: 0.63 mg/kg/injection, schedule: Q01DX010 (ip), vehicle: saline) 100 % of control; (dose: 1.25 mg/kg/injection, schedule: Q01DX010 (ip), vehicle: saline) 110 % of control; (dose: 5.0 mg/kg/injection, schedule: Q01DX010 (ip), vehicle: saline) 150 % of control.

Turning to `NC(=S)c1cncnc1N`, the T/C under setting [9] was 91 % of control.

With `CC1(C)OC(COS(C)(=O)=O)C(COS(C)(=O)=O)O1` (stereo not drawn), the T/C runs as follows: under setting [8], 101 % of control; under setting [11], 104 % of control; (dose: 400.0 mg/kg/injection, schedule: Q04DX002 (ip), vehicle: saline with Tween-80) 104 % of control.

For the molecule `NC(=O)n1nccc1N`, the T/C is, setting by setting: under setting [5], 100 % of control; (dose: 100.0 mg/kg/injection, schedule: Q04DX003 (ip), vehicle: saline) 105 % of control; under setting [6], 100 % of control; (dose: 200.0 mg/kg/injection, schedule: Q04DX003 (ip), vehicle: saline) 115 % of control; under setting [7], 90 % of control; (dose: 400.0 mg/kg/injection, schedule: Q04DX003 (ip), vehicle: saline) 110 % of control.

`N#CCC(C#N)N1CCOCC1` (stereo not drawn): the T/C (dose: 6.25 mg/kg/injection, schedule: Q01DX009 (ip), vehicle: saline with Tween-80) was 111 % of control; the T/C (dose: 12.5 mg/kg/injection, schedule: Q01DX009 (ip), vehicle: saline with Tween-80) is 96 % of control; the T/C under setting [10] was 88 % of control; the T/C (dose: 50.0 mg/kg/injection, schedule: Q04DX003 (ip), vehicle: saline with Tween-80) is 104 % of control; the T/C under setting [9] is 108 % of control.

Regarding `O=C(NN(Cn1c(=S)sc2ccccc21)Cn1c(=S)sc2ccccc21)c1ccncc1`, the T/C is 102 % of control (dose: 6.25 mg/kg/injection, schedule: Q01DX009 (ip), vehicle: Klucel (hydroxypropylcellulose) (HPC)); 120 % of control under setting [1]; 118 % of control under setting [2].

As for `CCOC(=S)SCc1cc(C(C)(C)C)c(O)c(C(C)(C)C)c1`, the T/C by setting is: under setting [8], 100 % of control; under setting [11], 99 % of control.
